Reference: US11207386B2, “Methods for inhibiting tumor growth” (priority 2015, dated 2021)
Where “and” joins values, the source holds several entries; their conditions need not be identical. Equal values may be shown once.

Test system: MCF-7 human breast cancer cells
Experiment: CellTiter Glo assay
Settings: six wells and Average
Experimental: MCF-7 human breast cancer cells were obtained and cultured for 3 passages in recommended media (DMEM medium, F12-K medium, McCoys 5a medium) and 10% fetal bovine serum (FBS). Cells were harvested by trypsinization, counted on ViCell, then plated at a density of 20,000 cells per well in ten clear bottom Perkin Elmer 96 well view plates and ten clear Costar 96 well plates. Oxyrase® and substrate were added to wells in quadruplicate: a first column of 4 wells had cells alone in each well; a second column of 4 wells contained Oxyrase® (20 units/mL) and cells; a third column of 4 wells contained L-Lactate at 40 mM and cells; and a fourth column of 4 wells contained cells and buffer, the latter added at equal volume to Oxyrase®. Five Perkin Elmer 96 well view plates and five clear Costar 96 well plates were placed in an incubator at 37 degrees Celsius and supplied with 5% carbon dioxide and 10% humidity. The remaining plates were placed in an incubator in anaerobic boxes containing oxygen depleting packets.
On days 0, 1, 3, 5, and 7, one Perkin Elmer 96 well view plate each from aerobic and anaerobic incubators were removed and a CellTiter Glo® assay was performed. CellTiter Glo® reagents were thawed at room temperature and mixed just before being added to each plate. Equal volume (maximum 125 μL) of CellTiter Glo® reagent was added to the plate and the plate incubated in the dark for 15 minutes. Plates were read using a Wallac Victor2 plate reader using the luminescence range

Substance: L-Lactate [Substrate + Buffer]
- CellTiter Glo luminescence (number of cells) (MCF-7, Day 0, Substrate + Buffer): 376738 RLU and 379461 RLU and 340018 RLU and 370831 RLU and 395464 RLU and 380015 RLU
- CellTiter Glo luminescence (number of cells) (MCF-7, Day 1, Substrate + Buffer): 136132 RLU and 135475 RLU and 224766 RLU and 187489 RLU and 171303 RLU and 142850 RLU
- CellTiter Glo luminescence (number of cells) (MCF-7, Day 5, Substrate + Buffer): 180844 RLU and 214489 RLU and 155311 RLU and 175921 RLU and 183640 RLU and 185254 RLU
- CellTiter Glo luminescence (number of cells) (MCF-7, Day 7, Substrate + Buffer): 147731 RLU and 163281 RLU and 149128 RLU and 150112 RLU and 139841 RLU and 176875 RLU
